Here are results for 3 molecules from PubChem BioAssay (NCI).

Structures are written as SMILES.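 Values below derive from 48-hour exposures of cells grown in 96-well plates, with endpoints linearly interpolated between the two concentrations bracketing the appropriate inhibition level. TGI denotes the concentration required for complete inhibition of growth.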

Common to all, as to experiment: NCI anticancer screen, dose series, 48 h
The subject of assay [1] is PC-3 prostate.
Assay [2] concerns MDA-N.
Assay [3] deals with BT-549 breast.
In assay [4] the test system is DU-145 prostate.
Assay [5] concerns NCI-H522 lung.
Assay [6] relates to XF 498 CNS.
The test system of assay [7] is A498 renal.
The test system of assay [8] is RXF-631 renal.

In the case of `COc1cccc(CC2Cc3ccccc3CC(=O)N2)c1` (stereo not given), the TGI in assay [1] is over 100 µM; in assay [2], over 100 µM; in assay [3], 92.1 µM; in assay [4], over 100 µM.

With `NC(CCOCCP(=O)(O)CCOCCC(N)C(=O)O)C(=O)O` (stereo not given), the TGI in assay [4] and in assay [5] was over 100 µM throughout.

`CCOC(=O)C1=C(C)N(NC(N)=O)C2(O)CCCC(=O)C12C` (stereo not given): the TGI in assay [6], in assay [5], in assay [7] and in assay [8] was over 100 µM throughout.
